Data: the supplement of paper PMC10627819

What was measured:
S. pneumoniae D39V [1] = experiment: Bliss interaction score (quartile over a dose matrix) (fitness difference); higher = more antagonism (negative = synergy)
How it was run: (§1)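 The Bliss score is observed minus expected fitness, where expected fitness is the product of the single-drug fitness values inferred from the combination data. Fitness is the OD595 at the onset of stationary phase over the plate's robust no-drug mean, capped at 1. Scores are summarised by quartiles over technical, biological and donor/recipient replicates.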

S. aureus DSM 20231 = experiment: as above
How it was run: as §1

B. subtilis 168 [2] = experiment: as above
How it was run: as §1

S. aureus Newman [3] = experiment: as above
How it was run: as §1

S. pneumoniae D39V [4] = experiment: fitness (endpoint OD595 vs no drug) (fraction); higher = more growth
How it was run: (§2)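 Fitness was measured as bacterial growth in 384-well plates inoculated at OD595 0.01 (30 µl, or 55 µl for S. pneumoniae). Media were TSB, LB Lennox or CY, at 37 °C. OD595 was read every 30 min for 14 h and background-subtracted against the first reading. Fitness is OD595 at the transition into stationary phase divided by the robust mean of no-drug control wells, capped at 1.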

B. subtilis 168 [5] = experiment: as above
How it was run: as §2

S. aureus Newman [6] = experiment: as above
How it was run: as §2
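Throughout, for Bliss interaction score (quartile over a dose matrix): first quartile when negative (synergy) and third quartile when positive (antagonism).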
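Throughout, for fitness (endpoint OD595 vs no drug): OD595 on entry to stationary phase over no-drug wells; at most 1.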

Cc1ncc([N+](=O)[O-])n1CCO [Metronidazole] + CN(C)c1cc(NC(=O)CNC(C)(C)C)c(O)c2c1C[C@H]1C[C@H]3[C@H](N(C)C)C(O)=C(C(N)=O)C(=O)[C@@]3(O)C(O)=C1C2=O [Tigecycline]
Details	Bliss interaction score
B. subtilis 168 [2]	-0.0624
S. aureus DSM 20231	0.0589
S. aureus Newman [3]	0.0458
S. pneumoniae D39V [1]	0.0439

fitness
Details	first compound 0.625 µg/mL	first compound 1.073 µg/mL	first compound 1.25 µg/mL	first compound 2.145 µg/mL	first compound 2.5 µg/mL	first compound 4.29 µg/mL	first compound 5 µg/mL
B. subtilis 168 [5], partner 0.039 µg/mL	0.963	–	0.977	–	≥ 1	–	–
B. subtilis 168 [5], partner 0.078 µg/mL	0.942	–	0.94	–	0.976	–	–
B. subtilis 168 [5], partner 0.156 µg/mL	0.944	–	0.963	–	0.938	–	–
S. aureus Newman [6], partner 0.039 µg/mL	0.987	–	≥ 1	–	0.995	–	–
S. aureus Newman [6], partner 0.078 µg/mL	≥ 1	–	0.981	–	≥ 1	–	–
S. aureus Newman [6], partner 0.156 µg/mL	0.966	–	0.977	–	≥ 1	–	–
S. pneumoniae D39V [4], partner 0.65 µg/mL	–	0.931	0.965	0.925	0.968	0.935	0.964
S. pneumoniae D39V [4], partner 1.3 µg/mL	–	0.931	0.94	0.938	0.943	0.949	0.952
S. pneumoniae D39V [4], partner 2.6 µg/mL	–	0.921	0.957	0.911	0.964	0.943	0.952

fitness, one replicate
Details	first compound 0.625 µg/mL	first compound 0.781 µg/mL	first compound 1.25 µg/mL	first compound 1.562 µg/mL	first compound 2.5 µg/mL	first compound 3.124 µg/mL
B. subtilis 168 [5], partner 0.125 µg/mL	≥ 1	–	≥ 1	–	≥ 1	–
B. subtilis 168 [5], partner 0.25 µg/mL	0.963	–	0.942	–	0.967	–
B. subtilis 168 [5], partner 0.5 µg/mL	0.917	–	0.927	–	0.968	–
S. aureus Newman [6], partner 0.039 µg/mL	–	≥ 1	–	0.971	–	0.932
S. aureus Newman [6], partner 0.078 µg/mL	–	≥ 1	–	≥ 1	–	≥ 1
S. aureus Newman [6], partner 0.156 µg/mL	–	≥ 1	–	≥ 1	–	0.959

Cc1ncc([N+](=O)[O-])n1CCO [Metronidazole] + CN[C@@H]1[C@H](O[C@H]2[C@H](O[C@H]3[C@H](O)[C@@H](O)[C@H](N=C(N)N)[C@@H](O)[C@@H]3N=C(N)N)O[C@@H](C)[C@]2(O)C=O)O[C@@H](CO)[C@H](O)[C@H]1O [Streptomycin]
Details	Bliss interaction score
B. subtilis 168 [2]	0.0729
S. aureus DSM 20231	0.0693
S. aureus Newman [3]	0.0764
S. pneumoniae D39V [1]	0.0448

fitness
Details	partner 1 µg/mL	partner 2 µg/mL	partner 4 µg/mL	partner 8 µg/mL
B. subtilis 168 [5], first compound 0.625 µg/mL	–	0.996	0.657	0.0295
B. subtilis 168 [5], first compound 1.25 µg/mL	–	0.997	0.633	0.0395
B. subtilis 168 [5], first compound 2.5 µg/mL	–	0.995	0.636	0.0352
S. aureus Newman [6], first compound 0.625 µg/mL	0.91	0.956	0.909	–
S. aureus Newman [6], first compound 0.781 µg/mL	0.966	0.899	–	–
S. aureus Newman [6], first compound 1.25 µg/mL	0.986	0.967	0.935	–
S. aureus Newman [6], first compound 1.562 µg/mL	≥ 1	0.917	–	–
S. aureus Newman [6], first compound 2.5 µg/mL	0.928	0.938	0.889	–
S. aureus Newman [6], first compound 3.124 µg/mL	0.982	0.926	–	–
S. pneumoniae D39V [4], first compound 1.073 µg/mL	–	0.903	0.992	0.945
S. pneumoniae D39V [4], first compound 1.25 µg/mL	–	–	0.992	0.891
S. pneumoniae D39V [4], first compound 2.145 µg/mL	–	0.935	0.977	0.932
S. pneumoniae D39V [4], first compound 2.5 µg/mL	–	–	0.998	0.893
S. pneumoniae D39V [4], first compound 4.29 µg/mL	–	0.871	0.905	0.945
S. pneumoniae D39V [4], first compound 5 µg/mL	–	–	0.981	0.907

fitness, S. pneumoniae D39V [4], one replicate
Details	first compound 1.25 µg/mL	first compound 2.5 µg/mL	first compound 5 µg/mL
partner 2 µg/mL	≥ 1	≥ 1	0.987
partner 16 µg/mL	0.815	0.787	0.818
